Assay results published in US20210382058A1, “PATIENT SELECTION FOR TREATMENT OF MYC POSITIVE CANCERS WITH INDENOISOQUINOLINES” (Purdue Research Foundation, priority 2020, published 2021).
Where two headings read alike, the source gives them in different places.

Key:
[1] = tested on: MYC protein expression in MCF-7 breast cancer cells; test: Western blotting of MYC protein level in MCF-7 cells; format: cell-based, human; conditions: Homo sapiens, MCF7; western blotting, MCF-7 cells, 0.5, 1, 2, and 4 μM, 24 hours; read-out: MYC Inhibition
Method in brief: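 MCF-7 cells were exposed to compounds at 0.5, 1, 2 and 4 μM for 24 hours at 37° C. MYC was detected by immunoblot with ECL, using rabbit anti-MYC (1:1000) and anti-GAPDH (1:2000) as loading control.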

NCI-60 cancer cell lines = test: NCI-60 cancer cell line drug screen (GI50, MGM); format: cell-based, human; conditions: Homo sapiens; for GI50: read-out: Antiproliferative Activities [GI50 (μM)]
Experimental: Cancer cells were incubated with the test compounds at five concentrations ranging from 100 μM to 10 nM for 48 h. […] The approximate average of GI50 values across the entire panel of NCI-60 cancer cell lines for each compound was recorded as the MGM value.

human topoisomerase I = target: T1, human topoisomerase I (Homo sapiens, UniProt P11387); conditions: relative topoisomerase I inhibition levels, previously determined, six levels (0 - 5, +++++ = 5); cited from earlier work
T1 sequence (P11387 1-765): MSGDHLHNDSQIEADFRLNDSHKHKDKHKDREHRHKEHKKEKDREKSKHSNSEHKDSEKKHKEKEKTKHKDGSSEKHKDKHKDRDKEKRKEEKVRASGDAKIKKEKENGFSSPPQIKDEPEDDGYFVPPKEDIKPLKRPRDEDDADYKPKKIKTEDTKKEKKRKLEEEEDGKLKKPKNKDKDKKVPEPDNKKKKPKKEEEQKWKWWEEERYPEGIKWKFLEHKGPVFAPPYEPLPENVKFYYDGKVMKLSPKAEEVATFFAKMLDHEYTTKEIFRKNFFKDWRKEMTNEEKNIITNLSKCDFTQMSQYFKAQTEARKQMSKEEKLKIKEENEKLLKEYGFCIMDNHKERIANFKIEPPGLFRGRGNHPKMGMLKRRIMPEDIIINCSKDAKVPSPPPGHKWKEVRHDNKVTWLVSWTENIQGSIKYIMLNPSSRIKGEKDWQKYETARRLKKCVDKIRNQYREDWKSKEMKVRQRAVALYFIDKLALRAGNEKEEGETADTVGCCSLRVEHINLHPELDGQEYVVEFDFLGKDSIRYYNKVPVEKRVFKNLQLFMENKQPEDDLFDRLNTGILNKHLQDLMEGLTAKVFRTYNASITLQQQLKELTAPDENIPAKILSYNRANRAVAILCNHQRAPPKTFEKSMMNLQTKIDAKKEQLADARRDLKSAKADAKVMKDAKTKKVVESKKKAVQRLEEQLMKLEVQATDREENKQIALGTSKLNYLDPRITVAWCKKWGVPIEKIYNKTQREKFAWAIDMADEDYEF

CN(C)CCCn1c2c(c3ccc(N4CCNCC4)cc3c1=O)C(=O)c1ccccc1-2 [Compound 25]
minimal effective concentration [1]: > 4 µM | GI50 (NCI-60 cancer cell lines; 786-0, Renal Cancer, 786-0): 1.34 µM | GI50 (NCI-60 cancer cell lines; A549, Non-Small Cell Lung Cancer, A549/ATCC): 0.22 µM | GI50 (NCI-60 cancer cell lines; ACHN, Renal Cancer, ACHN): 0.39 µM | GI50 (NCI-60 cancer cell lines; BT-549, Breast Cancer, BT-549): 1.27 µM | GI50 (NCI-60 cancer cell lines; CAKI-1, Renal Cancer, CAKI-1): 1.05 µM | GI50 (NCI-60 cancer cell lines; CCRF-CEM, Leukemia, CCRF-CEM): 0.34 µM | GI50 (NCI-60 cancer cell lines; COLO 205, Colon Cancer, COLO 205): 0.62 µM | GI50 (NCI-60 cancer cell lines; DU-145, Prostate Cancer, DU-145): 0.33 µM | GI50 (NCI-60 cancer cell lines; EKVX, Non-Small Cell Lung Cancer, EKVX): 1.18 µM | GI50 (NCI-60 cancer cell lines; HCC 2998, Colon Cancer, HCC-2998): 0.35 µM | GI50 (NCI-60 cancer cell lines; HCT-15, Colon Cancer, HCT-15): 0.73 µM | GI50 (NCI-60 cancer cell lines; HL-60, Leukemia, HL-60(TB)): 1.17 µM | GI50 (NCI-60 cancer cell lines; HOP-62, Non-Small Cell Lung Cancer, HOP-62): 1.06 µM | GI50 (NCI-60 cancer cell lines; HOP-92, Non-Small Cell Lung Cancer, HOP-92): 1.72 µM | GI50 (NCI-60 cancer cell lines; HT-29, Colon Cancer, HT29): 0.35 µM | GI50 (NCI-60 cancer cell lines; Hs-578T, Breast Cancer, HS 578T): 1.44 µM | GI50 (NCI-60 cancer cell lines; IGROV-1, Ovarian Cancer, IGROV1): 0.84 µM | GI50 (NCI-60 cancer cell lines; K562, Leukemia, K-562): 0.83 µM | GI50 (NCI-60 cancer cell lines; KM12, Colon Cancer, KM12): 1.13 µM | GI50 (NCI-60 cancer cell lines; LOX IMVI, Melanoma, LOX IMVI): 0.15 µM | GI50 (NCI-60 cancer cell lines; Leukemia, SR): 0.31 µM | GI50 (NCI-60 cancer cell lines; MCF7, Breast Cancer, MCF7): 0.3 µM | GI50 (NCI-60 cancer cell lines; MDA-MB-231, Breast Cancer, MDA-MB-231/ATCC): 0.51 µM | GI50 (NCI-60 cancer cell lines; MDA-MB-435, Melanoma, MDA-MB-435): 1.2 µM | GI50 (NCI-60 cancer cell lines; MDA-MB-468, Breast Cancer, MDA-MB-468): 0.95 µM | GI50 (NCI-60 cancer cell lines; MOLT-4, Leukemia, MOLT-4): 0.1 µM | GI50 (NCI-60 cancer cell lines; Malme-3M, Melanoma, MALME-3M): 1.42 µM | GI50 (NCI-60 cancer cell lines; Melanoma, M14): 1.05 µM | GI50 (NCI-60 cancer cell lines; NCI-H23, Non-Small Cell Lung Cancer, NCI-H23): 1.05 µM | GI50 (NCI-60 cancer cell lines; NCI-H226, Non-Small Cell Lung Cancer, NCI-H226): 0.56 µM | GI50 (NCI-60 cancer cell lines; NCI-H322M, Non-Small Cell Lung Cancer, NCI-H322M): 0.45 µM | GI50 (NCI-60 cancer cell lines; NCI-H460, Non-Small Cell Lung Cancer, NCI-H460): 0.31 µM | GI50 (NCI-60 cancer cell lines; NCI-H522, Non-Small Cell Lung Cancer, NCI-H522): 0.96 µM | GI50 (NCI-60 cancer cell lines; OVCAR-3, Ovarian Cancer, OVCAR-3): 1.05 µM | GI50 (NCI-60 cancer cell lines; OVCAR-4, Ovarian Cancer, OVCAR-4): 0.34 µM | GI50 (NCI-60 cancer cell lines; OVCAR-5, Ovarian Cancer, OVCAR-5): 2.12 µM | GI50 (NCI-60 cancer cell lines; OVCAR-8, Ovarian Cancer, OVCAR-8): 0.4 µM | GI50 (NCI-60 cancer cell lines; Ovarian Cancer, NCl/ADR-RES): 1.16 µM | GI50 (NCI-60 cancer cell lines; Prostate Cancer, PC-3): 0.86 µM | GI50 (NCI-60 cancer cell lines; RPMI-8226, Leukemia, RPMI-8226): 0.27 µM | GI50 (NCI-60 cancer cell lines; RXF 393, Renal Cancer, RXF 393): 1.29 µM | GI50 (NCI-60 cancer cell lines; Renal Cancer, U0-31): 0.77 µM | GI50 (NCI-60 cancer cell lines; SF-268, CNS Cancer, SF-268): 0.95 µM | GI50 (NCI-60 cancer cell lines; SF-295, CNS Cancer, SF-295): 1.16 µM | GI50 (NCI-60 cancer cell lines; SF-539, CNS Cancer, SF-539): 1.61 µM | GI50 (NCI-60 cancer cell lines; SK-MEL-2, Melanoma, SK-MEL-2): 1.71 µM | GI50 (NCI-60 cancer cell lines; SK-MEL-5, Melanoma, SK-MEL-5): 0.7 µM | GI50 (NCI-60 cancer cell lines; SK-MEL-28, Melanoma, SK-MEL-28): 1.53 µM | GI50 (NCI-60 cancer cell lines; SK-OV-3, Ovarian Cancer, SK-OV-3): 1.05 µM | GI50 (NCI-60 cancer cell lines; SN12C, Renal Cancer, SN12C): 0.33 µM | GI50 (NCI-60 cancer cell lines; SNB-19, CNS Cancer, SNB-19): 0.54 µM | GI50 (NCI-60 cancer cell lines; SNB-75, CNS Cancer, SNB-75): 0.95 µM | GI50 (NCI-60 cancer cell lines; SW-620, Colon Cancer, SW-620): 0.16 µM | GI50 (NCI-60 cancer cell lines; T47D, Breast Cancer, T-47D): 1.55 µM | GI50 (NCI-60 cancer cell lines; TK-10, Renal Cancer, TK-10): 1.33 µM | GI50 (NCI-60 cancer cell lines; U-251, CNS Cancer, U251): 0.64 µM | GI50 (NCI-60 cancer cell lines; UACC-62, Melanoma, UACC-62): 1.03 µM | GI50 (NCI-60 cancer cell lines; UACC-257, Melanoma, UACC-257): 1.69 µM | mean GI50 across NCI-60 panel (MGM) (NCI-60 cancer cell lines; average of GI50 values across the entire panel of NCI-60 cancer cell lines): 720 nM | Top1 Inhibiton (human topoisomerase I): ++ (medium inhibition, ++, MYC expression inhibited at 2.0 μM, or no clear dose-dependent MYC inhibition)
